Laboratory results reported in US20240324599A1, “PESTICIDAL ENZYMES FOR USE ON NEMATODES, INSECTS, AND MOLLUSKS” (priority 2023, published 2024).

System: corn
Test: Field trial: esterase on urea with or without NBPT, corn yield
Type: in vivo
Settings: corn, NBPT 64 fl oz/ton on Urea (135 lb/A Nitrogen), no EstA
Protocol: Esterase A (EstA) from Bacillus subtilis (SEQ ID NO:254) was produced via fermentation of a recombinantly produced enzyme in Bacillus subtilis. 1, 2, or 3 fl oz of fermentation product was applied onto 135 lb N/A (nitrogen equivalent per acre) urea fertilizer in a concrete mixer, and allowed to mix for 1 minute. A urea control treatment without fermentation media was also created. An addition treatment that contained 64 fl oz/ton N-Butyl-thiophosphoric triamide (NBPT) nitrogen stabilizer or 64 fl oz/ton NBPT nitrogen stabilizer with 3 fl oz/A EstA fermentation product was also included in the trial. Urea, alone or with fermentation media was distributed across 4 small replicated plots each prior to planting of corn with 4 replicates of 400 ft2 each at each site.

Structure (SMILES): CCCCNP(N)(N)=S [NBPT, N-Butyl-thiophosphoric triamide, reference compound]
- Yield (base control 188.2): 191.2 Bu/A
- Yield (base control 11830.4): 12022.3 Kg/ha
